In patent US20120149631A1 (priority 2009, published 2012):
pEC50: −log10 of the molar value. In brackets after ≈: the same amount, converted by molar mass. Where two headings read alike, the source gives them in different places. No end group written: not given here.

Key:
[1] = test system: A. actinomycetemcomitans Y4; conditions: for pEC50: 24 h
A. actinomycetemcomitans [2] = conditions: cited from earlier work
[3] = test system: K12 E. coli (ATCC #25404)
F. novicida = conditions: 24 h
F. novicida biofilm = format: cell-based, F. novicida (F. tularensis novicida)
P. aeruginosa biofilms = conditions: Overhage 2008; cited from earlier work
A. actinomycetemcomitans [4] = experiment: microbe, parasite or virus in culture; format: cell-based; conditions: for EC50: Aggregatibacter actinomycetemcomitans
E. coli (ATCC 25922) = conditions: cited from earlier work
P. aeruginosa = P. aeruginosa (ATCC 27853); cited from earlier work
[5] = read-out: EC50 uM, E. coli, 3 h incubation, CFU enumeration

## CC[C@H](C)[C@H](NC(=O)[C@H](CCCCN)NC(=O)[C@H](CCC(=O)O)NC(=O)[C@H](CCCCN)NC(=O)[C@H](CO)NC(=O)[C@H](CCCCN)NC(=O)[C@H](CCCNC(=N)N)NC(=O)[C@H](Cc1ccccc1)NC(=O)[C@H](Cc1ccccc1)NC(=O)[C@H](CC(=O)O)NC(=O)CNC(=O)[C@H](CC(C)C)NC(=O)[C@@H](N)CC(C)C)C(=O)NCC(=O)N[C@@H](CCCCN)C(=O)N[C@@H](CCC(=O)O)C(=O)N[C@@H](Cc1ccccc1)C(=O)N[C@@H](CCCCN)C(=O)N[C@@H](CCCNC(=N)N)C(=O)N[C@H](C(=O)N[C@H](C(=O)N[C@@H](CCC(N)=O)C(=O)N[C@@H](CCCNC(=N)N)C(=O)N[C@H](C(=O)N[C@@H](CCCCN)C(=O)N[C@@H](CC(=O)O)C(=O)N[C@@H](Cc1ccccc1)C(=O)N[C@@H](CC(C)C)C(=O)N[C@@H](CCCNC(=N)N)C(=O)N[C@@H](CC(N)=O)C(=O)N[C@@H](CC(C)C)C(=O)N[C@H](C(=O)N1CCC[C@H]1C(=O)N[C@@H](CCCNC(=N)N)C(=O)N[C@H](C(=O)N[C@@H](CCC(=O)O)C(=O)N[C@@H](CO)C(=O)O)[C@@H](C)O)C(C)C)[C@@H](C)CC)C(C)C)[C@@H](C)CC [LL-37]
[1]
  EC50 ug/mL: 6.24 µg/mL (≈ 1.39 µM)
  EC50: 6.224 µg/mL
  EC50 (μg/mL): 6.244 µg/mL (≈ 1.39 µM)
  pEC50: 5.86
A. actinomycetemcomitans [2]
  ED99: 8.2 µg/mL
  MBC: above 100 μg/mL
[3]; E. coli K12
  EC50: 0.519 µg/mL
[3]; E. coli, 3 h incubation, CFU enumeration
  EC50: 0.514 µg/mL
[3]; [5]
  EC50: 0.114 µM
F. novicida
  MIC: greater than 250 μg/ml
F. novicida biofilm
  concentration with significant inhibition of biofilm formation: ≤ 3.8 ng/mL
  inhibition of growth: no inhibition of growth
P. aeruginosa biofilms
  concentration inhibiting formation of biofilms: 0.05 µg/mL

## CC1(C)S[C@@H]2[C@H](NC(=O)[C@H](N)c3ccc(O)cc3)C(=O)N2[C@H]1C(=O)O [amoxicillin]
A. actinomycetemcomitans [4]
  EC50: 29.6 µg/mL
A. actinomycetemcomitans [4]; read-out: EC50 in μM
  EC50: 80.9 µM

## CC1(C)S[C@@H]2[C@H](NC(=O)[C@H](N)c3ccccc3)C(=O)N2[C@H]1C(=O)O [ampicillin]
A. actinomycetemcomitans [4]
  EC50: 75 µg/mL
A. actinomycetemcomitans [4]; read-out: EC50 in μM
  EC50: 215 µM

## CC[C@H]1OC(=O)[C@H](C)[C@@H](O[C@H]2C[C@@](C)(OC)[C@@H](O)[C@H](C)O2)[C@H](C)[C@@H](O[C@@H]2O[C@H](C)C[C@H](N(C)C)[C@H]2O)[C@](C)(O)C[C@@H](C)CN(C)[C@H](C)[C@@H](O)[C@]1(C)O [azithromycin]
A. actinomycetemcomitans [4]
  EC50: 34.4 µg/mL
A. actinomycetemcomitans [4]; read-out: EC50 in μM
  EC50: 45.9 µM

## CCC[C@@H]1C[C@@H](C(=O)N[C@@H]([C@H]2O[C@H](SC)[C@H](O)[C@@H](O)[C@H]2O)[C@H](C)Cl)N(C)C1 [clindamycin]
A. actinomycetemcomitans [4]
  EC50: > 250 µg/mL
A. actinomycetemcomitans [4]; read-out: EC50 in μM
  EC50: > 542 µM

## Cc1ncc([N+](=O)[O-])n1CCO [metronidazole]
A. actinomycetemcomitans [4]
  EC50: 19.5 µg/mL
A. actinomycetemcomitans [4]; read-out: EC50 in μM
  EC50: 114 µM

## GGLRSLGRKILRAWKKYGPIIVPIIRIG [BMAP-28]
[1]
  pEC50: 6.67

## GLLSRLRDFLSDRGRRLGEKIERIGQKIKDLSEFFQS [PMAP-37]
[1]
  pEC50: 5.90
E. coli (ATCC 25922)
  MIC: 1 µM
P. aeruginosa
  MIC: 4 µM

## GLRKRLRKFRNKIKEKLKKIGQKIQGLLPKLAPRTDY [CAP-18]
[1]
  pEC50: 5.80

## KRAKKFFKKLK-NH2 [ATRA-1A]
[3]; [5]
  EC50: 0.659 µM

## KRFKKFFKKPK-NH2 [ATRA-1P]
[3]; [5]
  EC50: 4.76 µM

## RLKELITTGGQKIGEKIRRIGQRIKDFFKNLQPREEKS [K9CATH]
[1]
  pEC50: 6.96

## gentamicin
A. actinomycetemcomitans [4]
  EC50 (μg/mL): 1.597 µg/mL
A. actinomycetemcomitans [4]; read-out: EC50
  pEC50: 5.48

## hBD-4: antimicrobial listed in Table 6, not further described (EFELDRICGYGTARCRKKCRSQEYRIGRCPNTYACCLRKWDESLLNRTKP; UniProt Q8WTQ1 23-72, looked up)
[1]
  EC50 (μg/mL): ≥ 100 µg/mL
[1]; read-out: EC50 in μM
  EC50: > 22.9 µM
